Measurements published in article PMC4380447, “Infrared Fluorescent Imaging as a Potent Tool for In Vitro, Ex Vivo and In Vivo Models of Visceral Leishmaniasis” (PLoS Neglected Tropical Diseases, 2015).
Where two headings read alike, the source gives them in different places.

Test system: HSP70+L. infantum amastigotes
Test: ex vivo splenic explant culture of infrared HSP70+L. infantum-infected BALB/c mice, infrared fluorescence readout (384-well)
Assay type: cell-based
Settings: Leishmania infantum
From the text: Several parameters were included in the development of the explant culture. i) Parasite infection rate is not equal in all animals from the same batch, thus in order to normalize the ex vivo culture, only spleens with weights ≥ 0.7 g were selected to prepare the ex vivo explants. ii) The starting cell density was adjusted in terms of fluorescence emission in a wide range of arbitrary units (0.25, 0.5, 1.0, and 2.0 x 10^5 AU). Since we intend to evaluate the drug inhibition in ex vivo cultures for at least 4 days, the initial number of AU that matched this condition was chosen. iii) Discrimination between drug-treated and untreated control cells was assessed by adding amphotericin B (AmpB) to the explants cultures. iv) To prevent the edge effect caused by evaporation from outer wells in assays with multi-day incubations, the top and bottom rows as well as the first and last columns were filled with ddH2O. In addition, the positive and negative controls were symmetrically distributed through the columns.
A total of 298 compounds belonged to three distinct collections including i) indenoisoquinolines obtained from Dr. Mark S. Cushman, Department of Medicinal Chemistry and Molecular Pharmacology (Purdue University, Indiana, USA.); ii) podophylotoxin and quinones were a kindly gift from Dr. Arturo San Feliciano, Deparment of Química Farmacéutica (Universidad de Salamanca, Spain) and iii) carbolins obtained from Dr. Sankaran Murugeshan, Department of Pharmacy, (Birla Institute of Technology & Science, Pilani, India). Stock solutions consisted of test compound at a concentration of 200 μM in 20% DMSO. The 200 μM master plates were further diluted by transferring aliquots of 5 μl into black 384-well plates with clear bottom containing 45 μl of culture medium. The final concentration of DMSO in both assay and control wells not exceeded 1% (v/v). […] The plates were incubated at 37 °C and 5% CO2 and at 0, 24, 48 and 72 h the infrared signal was recorded using the Odyssey infrared system (LI-COR, USA). […]
The antileishmanial effect of the compounds was calculated as the percentage inhibition in relation to AmpB and DMSO as follows: (mean of 1%DMSO–Experimental Value) / (mean of 1%DMSO–mean of AmpBEC100) x 100. […] The quality of the assay was given by Z’ factor that was calculated as 1 –[(3SD positive controls + 3SD negative controls) / (mean of the positive controls–mean of the negative controls)]. […]
Firstly, we checked the fluorescence dynamic range in which we could assure the effective and quantifiable replication of intracellular parasites inside macrophages in the absence of active drug over the course of the ex vivo culture. […] For this purpose, we fixed the fluorescence level per well, instead of adjusting the number of cells. […]

Compound: C[C@@H]1[C@H](O)[C@@H](C)/C=C/C=C/C=C/C=C/C=C/C=C/C=C/[C@H](O[C@@H]2O[C@H](C)[C@@H](O)[C@H](N)[C@@H]2O)C[C@@H]2O[C@](O)(C[C@@H](O)C[C@@H](O)[C@H](O)CC[C@@H](O)C[C@@H](O)CC(=O)O[C@H]1C)C[C@H](O)[C@H]2C(=O)O [AmpB, amphotericin B]
- IC50 (72 h, across all starting cell densities (1.0, 2.0 and 4.0 x10^5 AU), read-out: IC50 values at 72 h): 270 to 380 nM
- IC50 (starting cell density High: 4x10^5 AU, ten 2-fold dilutions from 10 μM, Fig 4E): 310 ± 50 nM
- IC50 (starting cell density Low: 1x10^5 AU, ten 2-fold dilutions from 10 μM, Fig 4C): 380 ± 60 nM
- IC50 (starting cell density Medium: 2x10^5 AU, ten 2-fold dilutions from 10 μM, Fig 4D): 270 ± 40 nM
